Results reported in patent publication US20100297159A1, “THOMSEN-FRIEDENREICH DISACCHARIDE MODIFIED IMMUNOGEN (TFD), PREPARATION PROCEDURE, COMPOSITIONS COMPRISING IT, USES, AND TREATMENT METHODS” (CONSEJO NACIONAL DE INVESTIGACIONES CIETIFICAS Y TECNICAS …, priority 2007, published 2010).
Read-outs that look alike come from different tables or passages of the source.

Tests used:
[1] = system: HT29 tumor cell / antibody interaction; assay: Competition ELISA of cells, inhibition of antibody interaction with HT29 tumor cells; assay type: cell-based, human; settings: for Inhibitory effect relative to BzlαTFD, IgM mediated interaction: times less inhibitory effect than BzlαTFD; for Inhibitory effect, IgM mediated interaction: in words
Description: Level of antibodies against epithelial tumor cells was determined using lines HT29, MCF7, and T47D. Tumor cells were cultured to sub-comfluence in media recommended by ATCC, and harvested by treatment with trypsin. They were adsorbed to multi-well plates, fixed with cold methanol for […] and saturated with PBS-T for 1 hour at room temperature. ELISA of cells was carried out by incubating serial dilutions of mouse sera against the different tumor lines for 2 hours at room temperature in PBS, and then was washed 4 times with PBS-T. The adhered antigen-antibody complex was detected with a 1/1000 dilution of anti-IgG goat antibody or mouse IgM conjugated to a peroxidase in PBS-T, incubated for 1 hour at room temperature, and washed […] PBS-T. Color reaction was developed as described for ELA. Steps for competition ELISA of cells were the same as for ELISA of cells, except in that the optimum anti-sera dilution was pre-incubated with several antigens related to carbohydrates for 1 hour at room temperature prior to the addition to the plate wells.

[2] = system: TFD-BSA antigen / IgG, IgM antibodies interaction; assay: Competition ELISA, inhibition of antibody interaction with TFD-BSA antigen; assay type: binding, mice; settings: for IC50: antisera from BzlαTFD-Lys5-KLHs immunization; for Inhibitory effect in the interaction of TFD-BSA/antigen T-IgG/IgM antibodies: competition ELISA, TFD-BSA and antigen T, in words
Description: (§1) Target antigens (10 μg/ml) were adhered to multi-well plates of polystirene in saline phosphate buffer (PBS; 10 mM sodium phosphate, pH 7.2 and 150 mM NaCl) overnight at 4° C. Glycolipids were diluted in methanol and dried for 1 hour at 60° C. After covering the wells with the antigens, these were saturated with PBS-1% BSA-0.05% Tween 20 for 1 hour at 37° C. Serial dilutions of antiserum were incubates with the antigen for 2 hours at room temperature, and then washed 5 times with PBS. The adhered antigen-antibody complex was detected with a 1/1000 dilution of anti-IgG goat antibody or mouse IgM conjugated with peroxydase in PBS-0.05% Tween 20 (PBS-T), incubates at room temperature for 1 hour, and washed 5 times with PBS. Color reaction was developed as described for ELA.
(§2) The three antibodies showing highest anti-TFD and anti-antigen T levels were analyzed by competition ELISA, and results were averaged. Optimum antiserum dilutions with an optical density of 1.0 against TFD-BSA and T-MUC1 (10 μg/ml) as blanc antigen were determined in preliminary experiments. Competition ELISA stages were equal to those in ELISA, except in that optimal antiserum dilution was pre-incubated with several related antigens in carbohydrates for 1 hour at room temperature before being added to the wells. Minimum concentration of carbohydrates required for 50% inhibition (ID50) of antigen-antibody interaction is a more specific parameter.

[3] = system: T-MUC1 antigen / IgG, IgM antibodies interaction; assay: Competition ELISA, inhibition of antibody interaction with T-MUC1 antigen; assay type: binding, mice; settings: antisera from BzlαTFD-Lys5-KLHs immunization
Description: as §1, §2

[4] = Homo sapiens, HT-29, HT29, IgG, read-out: Concentration requested to produce 50% inhibition (IC50), antibodies with HT29 tumor cell interaction, IgG
[5] = Homo sapiens, HT-29, HT29, IgM, read-out: Concentration requested to produce 50% inhibition (IC50), antibodies with HT29 tumor cell interaction, IgM
[6] = IgG, read-out: Concentration required to produce 50% inhibition (IC50), TFD-BSA antigen, IgG
[7] = IgM, read-out: Concentration required to produce 50% inhibition (IC50), TFD-BSA antigen, IgM
[8] = IgG, read-out: Concentration required to produce 50% inhibition (IC50), T-MUC1 antigen, IgG
[9] = IgM, read-out: Concentration required to produce 50% inhibition (IC50), T-MUC1 antigen, IgM
[10] = HT29, IgM, read-out: Concentration requested to produce 50% inhibition (IC50), antibodies with HT29 tumor cell interaction, IgM
[11] = HT29, IgG, read-out: Concentration requested to produce 50% inhibition (IC50), antibodies with HT29 tumor cell interaction, IgG

For CC(=O)NC1C(OCc2ccccc2)OC(CO)C(O)C1O (centres unmarked) [BzlαGalNAc], the “Inhibitory effect relative to BzlαTFD, IgM mediated interaction” value (shortened to “Inhibitory effect relative to BzlαTFD”) ([1]; HT29) was 4 times, the IC50 [1, 4] was 8 mM and the IC50 [1, 5] was 8 mM. For the same compound, the IC50 [2, 6] was 5 mM, the IC50 [2, 7] was 1 mM and the “Inhibitory effect in the interaction of TFD-BSA/antigen T-IgG/IgM antibodies” value [2] was “significant inhibition”. The IC50 [3, 8] was 20 mM and the IC50 [3, 9] was greater than 20 mM.

In the case of CC(=O)NC1C(OCc2ccccc2)OC(CO)C(O)C1OC1OC(CO)C(O)C(O)C1O (centres unmarked) [BzlαTFD], the “Inhibitory effect, IgM mediated interaction” value ([1]; HT29) is reported as “greatest inhibitors”, the IC50 [1, 4] is reported as 4 mM and the IC50 [1, 5] is reported as 2 mM. For the same compound, the IC50 [2, 6] was 2.5 mM, the IC50 [2, 7] was 0.1 mM and the “Inhibitory effect in the interaction of TFD-BSA/antigen T-IgG/IgM antibodies” value [2] was “significant inhibition”. It also gave an IC50 [3, 8] of 10 mM and an IC50 [3, 9] greater than 10 mM.

In the case of CC(=O)NC1C(O)OC(CO)C(O)C1O (centres unmarked) [GalNAc], the IC50 [1, 10] is reported as 20 mM, the “Inhibitory effect relative to BzlαTFD” value ([1]; HT29) is reported as 10 times and the IC50 [1, 4] is reported as greater than 100 mM. For the same compound, the IC50 [2, 6] was 20 mM, the IC50 [2, 7] was 30 mM and the IC50 [3, 8] was greater than 100 mM. The IC50 [3, 9] was greater than 100 mM.

OCC1OC(O)C(O)C(O)C1O (centres unmarked) [Gal] was tested, and the “Inhibitory effect, IgM mediated interaction” value ([1]; HT29) was “did not show inhibitory effect”.

For CC(=O)NC1C(O)OC(CO)C(O)C1O (centres unmarked) [GlcNAc], the IC50 [1, 11] was greater than 100 mM, the IC50 [1, 10] was greater than 100 mM and the “Inhibitory effect, IgM mediated interaction” value ([1]; HT29) was “did not show inhibitory effect”. The IC50 [2, 6] was greater than 100 mM, the IC50 [2, 7] was greater than 100 mM and the “Inhibitory effect in the interaction of TFD-BSA/antigen T-IgG/IgM antibodies” value [2] was “did not show any effect”. It also gave an IC50 [3, 8] greater than 100 mM and an IC50 [3, 9] greater than 100 mM.

OCC1OC(O)C(O)C(O)C1O (centres unmarked) [Glc] gave an IC50 [1, 4] greater than 100 mM, an IC50 [1, 5] greater than 100 mM and an IC50 [2, 6] greater than 100 mM. For the same compound, the IC50 [2, 7] was greater than 100 mM, the “Inhibitory effect in the interaction of TFD-BSA/antigen T-IgG/IgM antibodies” value [2] was “did not show any effect” and the IC50 [3, 8] was greater than 100 mM. It also gave an IC50 [3, 9] greater than 100 mM.

With CC(=O)N[C@@H]1[C@@H](O[C@@H]2O[C@H](CO)[C@H](O)[C@H](O)[C@H]2O)[C@@H](O)[C@@H](CO)O[C@@H]1O [TFD, Galβ3GalNAcα] the IC50 [1, 11] was greater than 10 mM, the IC50 [1, 10] was 8 mM and the “Inhibitory effect relative to BzlαTFD” value ([1]; HT29) was 4 times. For the same compound, the IC50 [2, 6] was 10 mM, the IC50 [2, 7] was 3.5 mM and the “Inhibitory effect in the interaction of TFD-BSA/antigen T-IgG/IgM antibodies” value [2] was “significant inhibition”. The IC50 [3, 8] was 20 mM and the IC50 [3, 9] was greater than 20 mM.

CC(=O)N[C@H]1[C@@H](Oc2ccc([N+](=O)[O-])cc2)O[C@H](CO)[C@H](O)[C@@H]1O[C@@H]1O[C@H](CO)[C@H](O)[C@H](O)[C@H]1O [pNPαTFD] was tested, and the IC50 [1, 11] was greater than 10 mM, the IC50 [1, 10] was 2 mM and the “Inhibitory effect, IgM mediated interaction” value ([1]; HT29) was “greatest inhibitors”.
